Data on 1 compound can be found in patent publication US7175872B2, “Pyridinium-Betain compounds for use as taste modulators” (Nestec S.A., priority 2002, dated 2007).

Counter-ions that a name gives are not always drawn.

Holding throughout (assay type): in vivo
The subject of one assay is beef taste recombinate. Description: Effect of Alapyridaine on the taste profile of a beef broth taste recombinate. The note with it: pH 5. An excerpt:
The beef taste recombinate (K. Shima et al., J. Agric. Food. Chem. 1998, 46, 1465–1468) consisting of 16 amino acids, 4 sugars, three 5′-nucleotides, 3 carbonic acids, 3 salts, and 4 other compounds was used as a sample having a basic brothy taste at pH 5, i.e. (in mg/L water) threonine (68), serine (38), MSG (64), proline (16), glycine (56), alanine (192), valine (34), methionine (20), isoleucine (16), leucine (28), tyrosine (38), phenylalanine (26), lysine hydrochloride (44), histidine (38), arginine (32), taurine (248), ribose (4), mannose (8), fructose (20), glucose (40), IMP.2Na.5H20 (424), GMP.2Na7H20 (80), AMP (60), pyroglutamic acid (1296), lactic acid (3567), succinic acid (98), NaCl (854), KCl (3940), MgCl2.6H20 (1104), CaCl2.2H20 (14), H3PO4, carnosine (912), creatine (1106), and creatinine (572) were dissolved in 1 L of water, and the pH was adjusted to 5.0.
The sensory panel was asked to score the given taste qualities of the biomimetic beef taste recombinate on a scale from 0 (not detectable) to 5 (strong). To study the influence of Alapyridaine on the taste qualities of that recombinate, a triangle test was performed with two glass vials containing the pure beef taste recombinate, and one glass vial containing the beef taste recombinate plus a known amount of Alapyridaine. […]

For another assay, the system named is umami taste of MSG. Kind of assay: Iso-intensity: relative umami taste of MSG/Alapyridaine mixtures. The note with it: 1.5 mmol/kg MSG and 6.0 mmol/kg Alapyridaine vs 1.5 mmol/kg MSG. How it is done: • Sensory panel training: […] Sensory analyses were performed in a sensory panel room at 22-25° C. on three different sessions. • Taste thresholds: The taste thresholds of the tastants or mixtures containing basic tastants plus Pyridinium-Betains were determined in a triangle test using Evian® mineral water as the solvent at a defined pH ([…] and H.-D. Belitz, Z. Lebensm. Unters. Forsch. 1975, 159, 65-72). The samples (3 mL) were presented in order of increasing concentrations (serial 1:1 dilutions). The threshold values evaluated in two different sessions were averaged. […] The taste intensities of aqueous (Evian®) solutions containing a basic tastant, such as glucose and MSG, for example, in constant concentrations and the compounds of the general formula (A), for example […], in various concentrations were compared with those of a solution containing the basic tastant only. […] The relative taste strength (taste enhancing factor) of a mixture containing the basic […] was related to the basic tastants glucose, MSG, or other tastants, respectively, as standard substances, and was determined as the ratio of the concentrations c of iso-intensely tasting solutions of the basic tastant, such as glucose (glc), and the mixture containing tastant plus Pyridinium-Betain, […])=[…] […]

Assay [1] deals with salty taste of NaCl. Description: Salt-intensity ranking of NaCl/Pyridinium-Betaine mixtures by sensory panel. The note with it: 20 mmol/L each, pH 7.0; scale 0 (not salty) to 5 (very salty), reference NaCl-solution ranked as 1. From the text: The salt-intensities of various NaCl/Pyridinium-Betaine mixtures (20 mmol/L each) were compared to a 20 mmol/L NaCl standard solution. The sensory panel was asked to rank the salt-intensities of these solutions on a scale from 0 (not salty) to 5 (very salty), while the reference NaCl-solution was ranked as 1. As listed in Table 6, the most intense salty taste was found in the solution containing NaCl and Alapyridaine, as well as in the triple mixture with L-arginine. A slight impact was found for Argpyridaine and L-arginine.

Assay [2] relates to salty taste of NaCl. Description: Salt taste detection threshold of NaCl/Pyridinium-Betaine mixtures (triangle test, sensory panel). The following applies: mixture with NaCl, pH 7.0.

For the compound `CC(C(=O)[O-])[n+]1cc(O)ccc1CO` (stereo not shown) [Alapyridaine, N-(1-carboxyethyl)-3-hydroxy-6-hydroxymethyl-pyridinium inner salt], the “effect on taste profile of beef taste recombinate” value in the assay with beef taste recombinate (0.5 mg/L Alapyridaine added) was “increased the umami character and decreased the sour note”. For the same compound, the “effect on taste profile of beef taste recombinate” value in the assay on beef taste recombinate (5 mg/L Alapyridaine added) was “more intense umami, sweet and salty taste and a reduced sourness”. Also, in the assay with umami taste of MSG, the “maximum umami-taste intensity (iso-intensity)” value is reported as 4 -fold. Also, the Salt-intensity in the assay on salty taste of NaCl [1] amounted to 0.0. For the same compound, in the assay on salty taste of NaCl [2], the Salt detection threshold amounted to 2.0 mmol/kg water and the Taste quality entry is reported as “salty”. Besides, the Threshold decrease in the assay with salty taste of NaCl [2] (vs NaCl in water 10.0 mmol/L) is recorded as 5.0.
